Measured values published in patent publication US4180655A, “Nitrosourea derivatives” (Suami; Tetsuo, priority 1974, dated 1979).
Read-outs that look alike come from different tables or passages of the source.

How the values were obtained:
[1] = system: Leukemia L1210 cells; assay: Chemotherapeutic effect of nitrosourea derivatives on leukemia L1210 in mice; type: in vivo, mice (BDF1/BDF)
Source text: Chemotherapeutic effect of a variety of the nitrosourea derivatives of the formula I according to this invention on leukemia L1210 in mice were investigated by the following method and materials.
A--BDF1 mice (about 6 week-aged; body weight: 22±1 g); each experimental group was composed of 2 male mice.
B--BDF1 mice (about 7 week-aged; body weight: 21±2 g); each experimental group was composed of 3 male mice.
C--BDF mice (about 7 week-aged; body weight: 22±2 g); each experimental group was composed of 2 male mice.
D--BDF mice (about 6 week-aged; body weight: 21±2 g); each experimental group was composed of 3 male mice.
E--BDF1 mice (about six week-aged; body weight 20±1 g); each experimental group was composed of 3 female mice.
F--BDF1 mice (about six week-aged; body weight 21±1 g); each experimental group was composed of 3 male mice.
A--Leukemia L1210 cells (2.1×10^6 cells/ 0.05 ml/mouse) were intraperitoneally inoculated.
B--Leukemia L1210 cells (1.9×10^6 cells/0.05 ml/mouse) were intraperitoneally inoculated.
C--Leukemia L1210 cells (1.2×10^6 cells/0.05 ml/mouse) were intraperitoneally inoculated.
A--The test compound was dissolved in a physiological saline solution and administered intraperitoneally at a volume of 0.1 ml/mouse. The administration was made at once/day, from 24 hours after i.p. inoculation of L1210 cells, for 3 days. The effect of test compound was assessed by mean survival days of mice, percent increase in life-span, anatomical findings involving the volume of ascites.
B--The same as that used in A except that the drug administration was continued for 5 days.
C--The same as that used in A except that the test compound was suspended in 0.5% CMC solution and that the drug administration was continued for 5 days.
D--The same as that used in A except that the test compound was dissolved in distilled water for injection purposes.
The percentage increase in life-span (ILS) was calculated as follows:
Percentage increase in life-span (ILS)=T-C/C×100
T: The mean survival days of the treated animals.
C: The mean survival days of the untreated control.

[2] = LD50 value / toxicity in the intraperitoneal administration to BDF1 mice; details: mouse, in vivo, ip
Source text: The new nitrosourea derivatives according to this invention are further characterized by their low toxicity, thus satisfying their practical application for treating leukemia and tumor diseases.

[3] = 2.5 mg/kg i.p. once/day for 3 days (procedure A, saline)
[4] = 5 mg/kg i.p. once/day for 3 days (procedure A, saline)
[5] = 10 mg/kg i.p. once/day for 3 days (procedure A, saline)
[6] = Mus musculus, L1210, ip, 72 h, 5 mg/kg i.p. once/day for 3 days (procedure A, saline), read-out: Percentage increase in life-span (ILS)
[7] = Mus musculus, L1210, ip, 72 h, 10 mg/kg i.p. once/day for 3 days (procedure A, saline), read-out: Percentage increase in life-span (ILS)
[8] = 0.2 mg/kg i.p. once/day for 3 days (procedure A, saline)
[9] = 0.5 mg/kg i.p. once/day for 3 days (procedure A, saline)
[10] = 1 mg/kg i.p. once/day for 3 days (procedure A, saline)
[11] = 2 mg/kg i.p. once/day for 3 days (procedure A, saline)
[12] = 4 mg/kg i.p. once/day for 3 days (procedure A, saline)
[13] = 6.25 mg/kg i.p. once/day for 3 days (procedure A, saline)
[14] = 8 mg/kg i.p. once/day for 3 days (procedure A, saline)
[15] = Mus musculus, L1210, ip, 72 h, 1 mg/kg i.p. once/day for 3 days (procedure A, saline), read-out: Percentage increase in life-span (ILS)
[16] = Mus musculus, L1210, ip, 72 h, 2 mg/kg i.p. once/day for 3 days (procedure A, saline), read-out: Percentage increase in life-span (ILS)
[17] = Mus musculus, L1210, ip, 72 h, 4 mg/kg i.p. once/day for 3 days (procedure A, saline), read-out: Percentage increase in life-span (ILS)
[18] = Mus musculus, L1210, ip, 72 h, 8 mg/kg i.p. once/day for 3 days (procedure A, saline), read-out: Percentage increase in life-span (ILS)
[19] = 16 mg/kg i.p. once/day for 3 days (procedure A, saline)

O=NN(CCCl)C(=O)N[C@@H]1O[C@H](CO)[C@@H](O[C@@H]2O[C@H](CO)[C@H](O)[C@H](O)[C@H]2O)[C@H](O)[C@H]1O [Compound 8, 1-(2-chloroethyl)-3-(β-D-lactosyl)-1-nitrosourea]
Survival days, Treated (mean) [1, 3]: 12.5 days
Volume of ascites, Treated [1, 3]: 3.3
Survival days, Treated (mean) [1, 4]: 14.3 days
Volume of ascites, Treated [1, 4]: 1.0
Survival days, Treated (mean) [1, 5]: > 47.0 days
Volume of ascites, Treated [1, 5]: 0
ILS at 2.5 mg/kg ([1]; Mus musculus, L1210, ip, 72 h, 2.5 mg/kg i.p. once/day for 3 days (procedure A, saline), read-out: Percentage increase in life-span (ILS)): 28.9%
ILS at 5 mg/kg [1, 6]: 47.4%
ILS at 10 mg/kg [1, 7]: > 384%

O=NN(CCCl)C(=O)N[C@@H]1O[C@H](CO)[C@@H](O)[C@H](O)[C@H]1O [Compound 1, 1-(2-chloroethyl)-3-(β-D-glucopyranosyl)-1-nitrosourea]
Survival days, Treated (mean) [1, 8]: 12.0 days
Volume of ascites, Treated [1, 8]: 4.2
Survival days, Treated (mean) [1, 9]: 12.5 days
Volume of ascites, Treated [1, 9]: 4.2
Survival days, Treated (mean) [1, 10]: 12.9 days
Volume of ascites, Treated [1, 10]: 5.0
Survival days, Treated (mean) [1, 11]: 15.3 days
Volume of ascites, Treated [1, 11]: 2.5
Survival days, Treated (mean) [1, 12]: 40.3 days
Volume of ascites, Treated [1, 12]: 0
Survival days, Treated (mean) [1, 4]: 15.3 days
Volume of ascites, Treated [1, 4]: 1.5
Survival days, Treated (mean) [1, 13]: > 40.1 days
Volume of ascites, Treated [1, 13]: 0
Survival days, Treated (mean) [1, 14]: 95.9 days
Volume of ascites, Treated [1, 14]: 0
Survival days, Treated (mean) [1, 5]: 95.9 days
Volume of ascites, Treated [1, 5]: 0
ILS at 0.2 mg/kg ([1]; Mus musculus, L1210, ip, 72 h, 0.2 mg/kg i.p. once/day for 3 days (procedure A, saline), read-out: Percentage increase in life-span (ILS)): 29%
ILS at 0.5 mg/kg ([1]; Mus musculus, L1210, ip, 72 h, 0.5 mg/kg i.p. once/day for 3 days (procedure A, saline), read-out: Percentage increase in life-span (ILS)): 34.4%
ILS at 1 mg/kg [1, 15]: 38.7%
ILS at 2 mg/kg [1, 16]: 64.5%
ILS at 4 mg/kg [1, 17]: 333%
ILS at 5 mg/kg [1, 6]: 64.5%
ILS at 6.25 mg/kg ([1]; Mus musculus, L1210, ip, 72 h, 6.25 mg/kg i.p. once/day for 3 days (procedure A, saline), read-out: Percentage increase in life-span (ILS)): > 331%
ILS at 8 mg/kg [1, 18]: 931%
ILS at 10 mg/kg [1, 7]: 931%
LD50 [2]: ~25 mg/kg

COc1cccc2c1C(=O)c1c(O)c3c(c(O)c1C2=O)C[C@@](O)(C(C)=O)C[C@@H]3O[C@H]1C[C@H](N)[C@H](O)[C@H](C)O1 [Compound 10, Daunomycin, reference compound]
Survival days, Treated (mean) ([1]; 0.25 mg/kg i.p. once/day for 5 days (procedure C, 0.5% CMC)): 10.2 days
Survival days, Treated (mean) ([1]; 0.5 mg/kg i.p. once/day for 5 days (procedure C, 0.5% CMC)): 12.8 days
Survival days, Treated (mean) ([1]; 1 mg/kg i.p. once/day for 5 days (procedure C, 0.5% CMC)): 12.6 days
Survival days, Treated (mean) ([1]; 2 mg/kg i.p. once/day for 5 days (procedure C, 0.5% CMC)): 13.6 days
ILS at 0.25 mg/kg ([1]; Mus musculus, L1210, ip, 120 h, 0.25 mg/kg i.p. once/day for 5 days (procedure C, 0.5% CMC), read-out: Percentage increase in life-span (ILS)): 20%
ILS at 0.5 mg/kg ([1]; Mus musculus, L1210, ip, 120 h, 0.5 mg/kg i.p. once/day for 5 days (procedure C, 0.5% CMC), read-out: Percentage increase in life-span (ILS)): 50.6%
ILS at 1 mg/kg ([1]; Mus musculus, L1210, ip, 120 h, 1 mg/kg i.p. once/day for 5 days (procedure C, 0.5% CMC), read-out: Percentage increase in life-span (ILS)): 48.3%
ILS at 2 mg/kg ([1]; Mus musculus, L1210, ip, 120 h, 2 mg/kg i.p. once/day for 5 days (procedure C, 0.5% CMC), read-out: Percentage increase in life-span (ILS)): 60%

O=NN(CCCl)C(=O)N[C@@H]1OC[C@@H](O)[C@H](O)[C@H]1O [Compound 3, 1-(2-chloroethyl)-1-nitroso-3-(β-D-xylopyranosyl)urea]
Survival days, Treated (mean) [1, 10]: 17.0 days
Volume of ascites, Treated [1, 10]: 0
Survival days, Treated (mean) [1, 11]: > 24.0 days
Volume of ascites, Treated [1, 11]: 0
Survival days, Treated (mean) [1, 12]: > 60.0 days
Volume of ascites, Treated [1, 12]: 0
Survival days, Treated (mean) [1, 14]: > 60.0 days
Volume of ascites, Treated [1, 14]: 0
Survival days, Treated (mean) [1, 19]: 9.0 days
Volume of ascites, Treated [1, 19]: 0
ILS at 1 mg/kg [1, 15]: 54.5%
ILS at 2 mg/kg [1, 16]: > 118%
ILS at 4 mg/kg [1, 17]: > 446%
ILS at 8 mg/kg [1, 18]: > 446%
ILS at 16 mg/kg ([1]; Mus musculus, L1210, ip, 72 h, 16 mg/kg i.p. once/day for 3 days (procedure A, saline), read-out: Percentage increase in life-span (ILS)): -18.2%
